Blank lines part the entries; values can stand above or below the compound they belong to.
Tests used:
Mus musculus [1] = test: Antidepressant-like activity in the forced swimming test (FST) in mice at 10 mg/kg dose; Antidepressant like activity; type: functional
D(2) dopamine receptor [2] = target: T1, D(2) dopamine receptor (Rattus norvegicus, UniProt P61169); test: Affinity at dopamine D2 receptor from rat striatum using [3H]spiroperidol as radioligand (For haloperidol Ki(nM)= 1.5+/-1.2); type: tissue-based
T1 sequence (P61169 whole entry): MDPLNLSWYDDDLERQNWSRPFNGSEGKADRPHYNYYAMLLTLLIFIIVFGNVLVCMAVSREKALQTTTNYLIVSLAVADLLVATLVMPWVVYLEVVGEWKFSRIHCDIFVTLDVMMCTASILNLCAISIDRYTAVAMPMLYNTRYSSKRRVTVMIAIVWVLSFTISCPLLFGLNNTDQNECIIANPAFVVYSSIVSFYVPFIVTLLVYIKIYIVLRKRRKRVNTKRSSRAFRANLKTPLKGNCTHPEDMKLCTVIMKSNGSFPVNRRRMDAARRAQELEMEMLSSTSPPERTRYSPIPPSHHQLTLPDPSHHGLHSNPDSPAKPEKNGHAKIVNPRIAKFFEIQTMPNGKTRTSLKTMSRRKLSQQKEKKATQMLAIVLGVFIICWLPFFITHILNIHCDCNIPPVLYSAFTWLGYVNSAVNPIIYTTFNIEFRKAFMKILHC

[3] = target: T2, 5-hydroxytryptamine receptor 2A (Rattus norvegicus, UniProt P14842); test: Affinity at 5-hydroxytryptamine 2 receptor from rat frontal cortex using [3H]ketanserin as radioligand (For ketanserin = Ki(nM)=0.7+/-0.09); type: tissue-based
T2 sequence (P14842 whole entry): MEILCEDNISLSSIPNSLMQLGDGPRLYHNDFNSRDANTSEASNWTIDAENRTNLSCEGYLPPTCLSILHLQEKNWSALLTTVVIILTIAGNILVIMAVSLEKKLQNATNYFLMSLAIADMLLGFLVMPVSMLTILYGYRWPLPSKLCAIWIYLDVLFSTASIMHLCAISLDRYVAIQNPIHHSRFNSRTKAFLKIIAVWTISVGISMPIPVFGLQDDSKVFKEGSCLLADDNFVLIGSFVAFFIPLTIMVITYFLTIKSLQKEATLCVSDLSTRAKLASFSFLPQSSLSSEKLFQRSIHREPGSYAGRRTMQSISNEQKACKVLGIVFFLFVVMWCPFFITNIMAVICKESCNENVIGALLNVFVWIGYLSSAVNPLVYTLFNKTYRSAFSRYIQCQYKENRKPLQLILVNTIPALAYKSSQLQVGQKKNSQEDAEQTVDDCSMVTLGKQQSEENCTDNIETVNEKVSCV

[4] = target: T3, 5-hydroxytryptamine receptor 1A (Homo sapiens) (UniProt P08908); test: Percent increase in the Forskolin-Stimulated cAMP formation, in HeLa cells transfected with the 5-HT 1A receptor a [compound (1 uM)]; type: functional, cell-based
T3 sequence (whole entry): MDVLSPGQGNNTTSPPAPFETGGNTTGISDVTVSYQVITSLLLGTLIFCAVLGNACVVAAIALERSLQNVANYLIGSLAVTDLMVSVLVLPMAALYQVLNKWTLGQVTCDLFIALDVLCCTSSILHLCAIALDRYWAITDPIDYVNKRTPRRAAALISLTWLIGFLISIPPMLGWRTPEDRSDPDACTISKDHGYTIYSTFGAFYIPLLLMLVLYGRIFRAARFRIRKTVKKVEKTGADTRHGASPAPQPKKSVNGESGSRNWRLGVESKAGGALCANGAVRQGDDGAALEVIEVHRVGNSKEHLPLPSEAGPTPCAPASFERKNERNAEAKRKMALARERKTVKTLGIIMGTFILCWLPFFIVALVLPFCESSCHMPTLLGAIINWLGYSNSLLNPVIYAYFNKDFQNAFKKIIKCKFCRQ

Adrenergic receptor beta [5] = target: T4, Adrenergic receptor beta (Rattus norvegicus, UniProt P18090+P10608+P26255)
Mus musculus [6] = test: Antidepressant-like activity in the forced swimming test (FST) in mice at 10 mg/kg dose; type: functional
[7] = target: T5, 5-hydroxytryptamine receptor 3A (Rattus norvegicus, UniProt P35563); test: Affinity at 5-hydroxytryptamine 3 receptor (For granisetron = Ki (nM)=0.3+/-0.01)
T5 sequence (P35563 whole entry): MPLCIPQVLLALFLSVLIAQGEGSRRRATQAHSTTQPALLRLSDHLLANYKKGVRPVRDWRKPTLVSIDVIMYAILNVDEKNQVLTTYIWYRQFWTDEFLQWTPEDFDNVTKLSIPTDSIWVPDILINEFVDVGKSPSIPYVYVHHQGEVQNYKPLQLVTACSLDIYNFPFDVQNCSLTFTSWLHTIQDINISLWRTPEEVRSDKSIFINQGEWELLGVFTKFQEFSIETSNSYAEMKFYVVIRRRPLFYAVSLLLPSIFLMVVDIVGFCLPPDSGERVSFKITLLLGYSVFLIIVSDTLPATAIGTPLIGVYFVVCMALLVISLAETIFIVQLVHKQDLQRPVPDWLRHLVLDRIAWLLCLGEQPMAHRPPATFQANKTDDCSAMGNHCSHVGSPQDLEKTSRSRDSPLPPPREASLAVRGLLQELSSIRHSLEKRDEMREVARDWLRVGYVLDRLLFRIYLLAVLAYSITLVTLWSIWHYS

Mus musculus [8] = test: Antidepressant-like activity in the forced swimming test (FST) in mice at 1 mg/kg dose; type: functional
[9] = target: 5-hydroxytryptamine receptor 1D (Homo sapiens, UniProt P28221); test: Affinity at 5-hydroxytryptamine 1D receptor (For sumatriptan = Ki (nM)-12+/-1.9)
Chain of 5-hydroxytryptamine receptor 1D (P28221 whole entry): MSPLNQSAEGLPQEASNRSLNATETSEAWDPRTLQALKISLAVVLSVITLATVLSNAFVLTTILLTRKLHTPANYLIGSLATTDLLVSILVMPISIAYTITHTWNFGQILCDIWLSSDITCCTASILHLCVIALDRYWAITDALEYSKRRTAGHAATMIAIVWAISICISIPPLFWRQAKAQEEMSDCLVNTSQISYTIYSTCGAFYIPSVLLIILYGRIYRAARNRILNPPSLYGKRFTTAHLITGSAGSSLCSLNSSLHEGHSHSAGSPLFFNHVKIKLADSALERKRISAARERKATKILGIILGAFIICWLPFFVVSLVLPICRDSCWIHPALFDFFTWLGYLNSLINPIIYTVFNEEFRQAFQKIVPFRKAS

Mus musculus [10] = test: Time-dependent effect on 8-OH-DPAT-induced hypothermia (change in body temperature) after 30 min, in mice at 5 mg/kg dose; type: functional
D(2) dopamine receptor [11] = target: T1, D(2) dopamine receptor; test: Affinity at dopamine D2 receptor, (For haloperidol Ki(nM)= 1.5+/-1.2)
[12] = target: T2, 5-hydroxytryptamine receptor 2A; test: Affinity at 5-hydroxytryptamine 2 receptor (For ketanserin = Ki(nM)= 0.7+/-0.09)
[13] = target: Muscarinic acetylcholine receptor; test: Affinity at muscarinic receptor, (For atropine Ki(nM)= 3.5+/-0.3); type: protein assay
Adrenergic receptor beta [14] = target: T4, Adrenergic receptor beta; test: Affinity at beta-adrenoceptor (For DHA Ki(nM)= 3.5+/-0.3); type: protein assay
Mus musculus [15] = test: Antidepressant-like activity in the forced swimming test (FST) in mice at 0.1 mg/kg dose; type: functional
Rattus norvegicus [16] = test: Effect on helpless behavior in rats and the number of escape failures was determined in shuttle-box session-3 (SB-3) at 10 mg/kg dose; type: functional
Mus musculus [17] = test: Effect on immobility time in the forced swimming test (FST) in mice at 0.01 mg/kg dose; type: functional
Rattus norvegicus [18] = test: Effect on helpless behavior in rats and the number of escape failures was determined in shuttle-box session-3 (SB-) at 1 mg/kg dose; type: functional
Mus musculus [19] = test: Time-dependent effect on 8-OH-DPAT-induced hypothermia (change in body temperature) after 30 min, in mice at 0.01 mg/kg dose; type: functional
Mus musculus [20] = test: Time-dependent effect on 8-OH-DPAT-induced hypothermia (change in body temperature) after 15 min, in mice at 0.01 mg/kg dose; type: functional
[21] = target: T3, 5-hydroxytryptamine receptor 1A (Homo sapiens); test: Percent increase in the Forskolin-Stimulated cAMP formation, in HeLa cells transfected with the 5-HT 1A receptor at 1 uM concentration; type: functional, cell-based
Rattus norvegicus [22] = test: Effect on helpless behavior in rats and the number of escape failures was determined in shuttle-box session-2 (SB-2) at 10 mg/kg dose; type: functional
Mus musculus [23] = test: Effect on immobility time in the forced swimming test (FST) in mice at 0.001 mg/kg dose; type: functional
Rattus norvegicus [24] = test: Effect on helpless behavior in rats and the number of escape failures was determined in shuttle-box session-1 (SB-1) at 10 mg/kg dose; type: functional
Mus musculus [25] = test: Time-dependent effect on 8-OH-DPAT-induced hypothermia (change in body temperature) after 60 min, in mice at 0.01 mg/kg dose; type: functional
Mus musculus [26] = test: Antidepressant-like activity in the forced swimming test (FST) in mice at 0.01 mg/kg dose; Antidepressant like activity; type: functional
Mus musculus [27] = test: Antidepressant-like activity in the forced swimming test (FST) in mice at 0.001 mg/kg dose; Antidepressant like activity; type: functional

Ki (D(2) dopamine receptor [2]): 2.5 µM
Ki [3]: > 5 µM
cAMP increase [4]: 52%
Ki (Adrenergic receptor beta [5]): > 5 µM
Structure (SMILES): COc1ccccc1N1CCN(CCC(Oc2cccc3ccccc23)c2ccsc2)CC1 (configuration not stated)
Activity (Mus musculus [1]): 49%

Ki [7]: > 5 µM
Ki [9]: 5 µM
Ki (D(2) dopamine receptor [11]): 0.5 µM
Ki [12]: 5 µM
Ki [13]: > 5 µM
Ki (Adrenergic receptor beta [14]): > 5 µM
Structure (SMILES): COc1ccccc1N1CCN(CCC(=O)c2csc3ccccc23)CC1
Activity (Mus musculus [6]): 54%
Activity (Mus musculus [8]): 60%
Temperature change (Mus musculus [10]): <-1.47 °C
Activity (Mus musculus [15]): 18%

Structure (SMILES): COc1ccccc1N1CCN(CCC(O)c2csc3ccccc23)CC1 (configuration not stated)
No. of escape failures (Rattus norvegicus [16]): 4
Immobility time (Mus musculus [17]): <54.4 s
No. of escape failures (Rattus norvegicus [18]): 1.8
Temperature change (Mus musculus [19]): -1.3 °C
Temperature change (Mus musculus [20]): -1.26 °C
Activity (Mus musculus [1]): 1%
Ki (D(2) dopamine receptor [2]): 0.15 µM
cAMP increase [21]: 64%
Ki [3]: 0.25 µM
Temperature change (Mus musculus [10]): -2.5 °C
No. of escape failures (Rattus norvegicus [22]): 3.2
Immobility time (Mus musculus [23]): <58.8 s
Ki (Adrenergic receptor beta [5]): 0.75 µM
No. of escape failures (Rattus norvegicus [24]): 6.6
Temperature change (Mus musculus [25]): -0.73 °C
Activity (Mus musculus [26]): 70%
Activity (Mus musculus [27]): 67%
